Results taken from patent US4883801A, “Xanthine derivative pest control agents” (priority 1986, dated 1989).
Entries after “also recorded” stand apart in the source; their conditions may differ.

Columns and labels:
[1] = tested on: hornworm nerve cord PDE (cyclic AMP phosphodiesterase); experiment: Inhibition of cyclic AMP phosphodiesterase activity in homogenates of tobacco hornworm nerve cord; type: biochemical, Manduca sexta; details: for activity of structurally similar compounds tested as described in Example 46: Example 47
Experimental: Nerve cord was dissected from 40-60 mm long M. sexta larvae, cleaned, and homogenized (2 mg/ml) in 6 Mm Tris-maleate, pH 7.4. PDE activity was measured (4 min. incubation at 30° C.) in an assay system (0.1 ml) containing 80 mM Tris-maleate, pH 7.4; 6 mM Mg--SO4; 10^-7 M^3 H-cyclic AMP; and tissue homogenate (0.02 ml). Nerve cord was evaluated in the presence and the absence of the xanthine derivative. For purposes of the evaluation, the rate of formation of ^3 H-5' AMP was measured using the technique described in Filburn, C. […] The values shown in FIG. 1D are the mean (±SEM) of three separate experiments.

[2] = tested on: cockroach brain adenylate cyclase; details: in vitro; cited from earlier work
[3] = tested on: cockroach brain phosphodiesterase; details: in vitro; cited from earlier work
[4] = tested on: Manduca sexta (tobacco hornworm) larvae; experiment: Antifeeding test: tomato leaves sprayed with compound, tobacco hornworm larvae; type: in vivo; details: for Vmax (percent inhibition of feeding at the highest dose used): highest dose usually a 3% spray solution; for EC50 (spray concentration required to cause 50% inhibition of feeding): spray on tomato leaves, calculated from dose-response curves, Manduca sexta 6 per leaf
[5] = tested on: adenosine receptor; details: Bruns et al., cited from earlier work
[6] = tested on: Tribolium castaneum (flower beetle) adults; experiment: Tribolium castaneum adults: acute effect and chronic reproduction test; type: in vivo
[7] = tested on: Tribolium confusum (flower beetle) adults; experiment: Tribolium confusum adults: acute effect and chronic reproduction test; type: in vivo
[8] = tested on: Culex (mosquito) larvae; experiment: Killing of Culex larvae in solution; type: in vivo

| Structure (SMILES) | Vmax (percent inhibition of feeding at the highest dose used) [4] [%] | EC50 (spray concentration required to cause 50% inhibition of feeding) [4] | also measured |
| --- | --- | --- | --- |
| Cn1c(=O)c2ncn(C)c2n(C)c1=O [1,3,9-trimethyl-xanthine] | – | – | activity of structurally similar compounds tested as described in Example 46 [1]: only weakly active |
| CNC(=O)O/N=C/C(C)(C)SC [Aldicarb] | – | – | direct effect on cockroach brain adenylate cyclase (in words) [2]: essentially no direct effects |
| C=CCC1=C(C)C(OC(=O)C2C(C=C(C)C)C2(C)C)CC1=O (stereo not drawn) [Allethrin] | – | – | direct effect on cockroach brain adenylate cyclase (in words) [2]: essentially no direct effects |
| Clc1ccc(C(c2ccc(Cl)cc2)C(Cl)(Cl)Cl)cc1 [DDT] | – | – | direct effect on cockroach brain adenylate cyclase (in words) [2]: essentially no direct effects; effect on cockroach brain phosphodiesterase (in words) [3]: activators of phosphodiesterase |
| ClC1=C(Cl)[C@]2(Cl)[C@@H]3[C@@H]4C[C@@H]([C@H]5O[C@@H]45)[C@@H]3[C@@]1(Cl)C2(Cl)Cl [Dieldrin] | – | – | direct effect on cockroach brain adenylate cyclase (in words) [2]: essentially no direct effects; effect on cockroach brain phosphodiesterase (in words) [3]: activators of phosphodiesterase |
| Cc1cc(OC(=O)N(C)C)nn1C(=O)N(C)C [Dimetilan] | – | – | direct effect on cockroach brain adenylate cyclase (in words) [2]: essentially no direct effects |
| CCn1c(=O)c2[nH]cnc2n(CC)c1=O [Example 16, 1,3-diethyl-xanthine] | 98 | 0.33 % (gm/100 ml) | – |
| CCCn1c(=O)c2[nH]cnc2n(CCC)c1=O [Example 17, 1,3-dipropyl-xanthine] | 95 | 0.035 % (gm/100 ml) | – |
| C=CCn1c(=O)c2[nH]cnc2n(CC=C)c1=O [Example 18, 1,3-diallyl-xanthine] | 99 | 0.35 % (gm/100 ml) | – |
| O=c1c2[nH]cnc2n(Cc2ccccc2)c(=O)n1Cc1ccccc1 [Example 19, 1,3-dibenzyl-xanthine] | 70 | 0.45 % (gm/100 ml) | – |
| CC(C)Cn1c(=O)n(C)c(=O)c2[nH]cnc21 [Example 20, 1-methyl,3-isobutyl-xanthine] | 95 | 0.3 % (gm/100 ml) | potency in blocking adenosine receptors compared with theophylline (in words) [5]: roughly equally potent; EC50, inhibition of reproduction ([6]; chronic tests): 0.2%; effect on adults ([6]; doses up to 3%): unaffected; potency in PDE inhibition relative to theophylline [1]: about 10 fold; antifeeding effects in the presence of diltiazem and procaine ([4]; Example 13): neither reversing the observed antifeeding effects; pestistatic and pesticidal effects in the presence of D600, verapamil, and nimodipine ([4]; Example 14): appeared unaffected; potency in disruption of feeding relative to theophylline ([4]; in vivo): about 10 fold; EC50, inhibition of reproduction ([7]; chronic tests): 0.2%; effect on adults ([7]; doses up to 3%): unaffected; EC50, killing of larvae [8]: 0.007% |
| CC(C)CCn1c(=O)c2[nH]cnc2n(CC(C)C)c1=O [Example 21, 1-isoamyl,3-isobutyl-xanthine] | > 52 | 0.2 % (gm/100 ml) | – |
| CCn1c(=O)n(CCc2ccccc2)c(=O)c2[nH]cnc21 [Example 22, 1-phenethyl,3-ethyl-xanthine] | 96 | 0.6 % (gm/100 ml) | – |
| Cn1c(=O)c2c(ncn2CCCl)n(C)c1=O [Example 24, 1,3-dimethyl,7-(2-chlorethyl)-xanthine] | 95 | 0.3 % (gm/100 ml) | – |
| CC(O)Cn1cnc2c1c(=O)n(C)c(=O)n2C (stereo not drawn) [Example 25, 1,3-dimethyl,7-(beta-hydroxypropyl-xanthine)] | 95 | 1.5 % (gm/100 ml) | – |
| COc1nc2c(c(=O)n(C)c(=O)n2C)n1C [Example 26, 1,3,7-trimethyl,8-methoxy-xanthine] | 86 | 0.5 % (gm/100 ml) | – |
| Cn1cnc2c1c(=O)[nH]c(=O)n2C [Example 27, 3,7-dimethyl-xanthine (theobromine), reference compound] | 87 | 1.0 % (gm/100 ml) | – |
| CCCn1c(=O)c2c(ncn2C)n(CCC)c1=O [Example 28, 1,3-dipropyl,7-methyl-xanthine] | 84 | 0.48 % (gm/100 ml) | – |
| CCCn1c(=O)c2c(ncn2CCC)n(CCC)c1=O [Example 29, 1,3,7-tripropyl-xanthine] | 95 | 0.19 % (gm/100 ml) | – |
| CCCn1c(=O)c2c(ncn2Cc2ccccc2)n(CCC)c1=O [Example 30, 1,3-dipropyl,7-benzyl-xanthine] | 96 | 0.08 % (gm/100 ml) | – |

| Structure (SMILES) | Vmax (percent inhibition of feeding at the highest dose used) [4] [%] | EC50 (spray concentration required to cause 50% inhibition of feeding) [4] | also measured |
| --- | --- | --- | --- |
| CCCCn1c(=O)c2[nH]cnc2n(CCCC)c1=O [Example 31, 1,3-dibutyl-xanthine] | 90 | 0.044 % (gm/100 ml) | – |
| O=c1[nH]c(=O)c2[nH]cnc2[nH]1 [Example 32, xanthine] | 0 | > 3 % (gm/100 ml) | – |
| Cn1c(=O)[nH]c2nc[nH]c2c1=O [Example 33, 1-methyl-xanthine] | 21 | > 3 % (gm/100 ml) | – |
| Cn1c(=O)[nH]c(=O)c2[nH]cnc21 [Example 34, 3-methyl-xanthine] | 8 | > 3 % (gm/100 ml) | – |
| Cn1cnc2[nH]c(=O)[nH]c(=O)c21 [Example 35, 7-methyl-xanthine] | 29 | > 3 % (gm/100 ml) | – |
| Cc1nc2[nH]c(=O)[nH]c(=O)c2[nH]1 [Example 36, 8-methyl-xanthine] | 35 | > 3 % (gm/100 ml) | – |
| Cn1c(=O)[nH]c2ncn(C)c2c1=O [Example 38, 1,7-dimethyl-xanthine] | 30 | > 3 % (gm/100 ml) | activity of structurally similar compounds tested as described in Example 46 [1]: inactive |
| Cn1c(=O)[nH]c2[nH]c(=O)n(C)c2c1=O [Example 39, 1,7-dimethyl-uric acid] | 30 | > 3 % (gm/100 ml) | – |
| Cn1c(=O)c2c([nH]c(=O)n2C)n(C)c1=O [Example 40, 1,3,7-trimethyl-uric acid] | 40 | > 3 % (gm/100 ml) | – |
| CC(=O)n1cnc2c1c(=O)n(C)c(=O)n2C [Example 41, 1,3-dimethyl-7-acetyl-xanthine] | 18 | > 3 % (gm/100 ml) | – |
| Cn1c(=O)c2[nH]c(-c3ccccc3)nc2n(C)c1=O [Example 42, 1,3-dimethyl-8-phenyl-xanthine] | 38 | > 3 % (gm/100 ml) | Ki ([5]; Daly 1982): 0.12 to 1 µM; PDE inhibition (in words) ([1]; FIG. 1D): very weak PDE inhibitor; antifeeding effect (in words) ([4]; FIG. 1C, listed as 8-phenyltheophylline): relatively weak effects; also recorded: little antifeeding effect |
| CCCn1c(=O)c2[nH]c(-c3ccccc3)nc2n(CCC)c1=O [Example 43, 1,3-dipropyl-8-phenyl-xanthine] | 0 | > 3 % (gm/100 ml) | – |
| Cn1c(=O)c2c(nc(Cl)n2C)n(C)c1=O [Example 44, 1,3,7-trimethyl-8-chloro-xanthine] | 40 | > 3 % (gm/100 ml) | – |
| Cn1c(=O)c2ncn(C)c2n(C)c1=O [Example 45, 1,3,9-trimethyl-xanthine] | 50 | > 3 % (gm/100 ml) | pesticidal and pestistatic activity class (active / inactive / weakly active) ([4]; Table 1 grouping): weakly active |
| Cc1ccc2nc3sc(=O)sc3nc2c1 [Oxythioquinox] | – | – | direct effect on cockroach brain adenylate cyclase (in words) [2]: essentially no direct effects; effect on cockroach brain phosphodiesterase (in words) [3]: most potent inhibitor; inhibition of cockroach brain phosphodiesterase [3]: over 80% |
| C=C(C)[C@H]1Cc2c(ccc3c2O[C@@H]2COc4cc(OC)c(OC)cc4[C@@H]2C3=O)O1 [Rotenone] | – | – | direct effect on cockroach brain adenylate cyclase (in words) [2]: essentially no direct effects |
| CCOP(=O)(OCC)OP(=O)(OCC)OCC [TEPP] | – | – | direct effect on cockroach brain adenylate cyclase (in words) [2]: essentially no direct effects |
| COP(=O)(OC)Oc1ccc([N+](=O)[O-])cc1 [methylparaoxon] | – | – | direct effect on cockroach brain adenylate cyclase (in words) [2]: essentially no direct effects |
| COc1ccc(Cc2nccc3cc(OC)c(OC)cc23)cc1OC [papavarine, reference compound] | – | – | Ki ([1]; read-out: Ki, insect PDE): 40 µM; EC50, ability of Manducca to feed ([4]; in vivo): 0.1 % spray |
